Assay: xn = mol fraction of the nth substance listed

CCCCCCCCCCCCCCCC[N+](C)(C)C.[Br-] + CCO + O
298.2 K, 101.3 kPa
Conditions	electrical conductivity [S/m]
x1 = 1.26e-06, x2 = 0.05064	0.00062
x1 = 3.09e-06, x2 = 0.05064	0.00117
x1 = 5.13e-06, x2 = 0.05064	0.00178
x1 = 7.19e-06, x2 = 0.05064	0.00236
x1 = 9.2e-06, x2 = 0.05064	0.00294
x1 = 1.12e-05, x2 = 0.05064	0.0035
x1 = 1.326e-05, x2 = 0.05064	0.00406
x1 = 1.526e-05, x2 = 0.05064	0.00458
x1 = 1.726e-05, x2 = 0.05064	0.00501
x1 = 1.932e-05, x2 = 0.05064	0.0055
x1 = 2.135e-05, x2 = 0.05064	0.00592
x1 = 2.333e-05, x2 = 0.05064	0.00629
x1 = 2.537e-05, x2 = 0.05064	0.00663
x1 = 2.735e-05, x2 = 0.05064	0.00698
x1 = 2.922e-05, x2 = 0.05064	0.00728
x1 = 3.097e-05, x2 = 0.05064	0.00754
x1 = 3.328e-05, x2 = 0.05064	0.00788

CCCCCCCCn1cc[n+](C)c1.[Cl-] + CCO + O
298.15 K, 101 kPa
Conditions	viscosity [mPa·s]
x2 = 0.0467, x3 = 0.9348	2.514
x2 = 0.0558, x3 = 0.9143	3.908
x2 = 0.0679, x3 = 0.8854	7.008
x2 = 0.0766, x3 = 0.8576	10.5
x2 = 0.0826, x3 = 0.91	2.007
x2 = 0.0929, x3 = 0.8165	13.64
x2 = 0.0962, x3 = 0.8862	2.748
x2 = 0.0984, x3 = 0.1869	2330
x2 = 0.1218, x3 = 0.7443	18.9
x2 = 0.1329, x3 = 0.8601	2.881
x2 = 0.1594, x3 = 0.6721	21.9
x2 = 0.1807, x3 = 0.7375	7.695
x2 = 0.1867, x3 = 0.7875	3.207
x2 = 0.1968, x3 = 0.1665	855
x2 = 0.2008, x3 = 0.4721	68.1
x2 = 0.2008, x3 = 0.7927	2.822
x2 = 0.2235, x3 = 0.6582	10.37
x2 = 0.2254, x3 = 0.7596	2.603
x2 = 0.2604, x3 = 0.7162	3.164
x2 = 0.2624, x3 = 0.3089	119.1
x2 = 0.2733, x3 = 0.7208	2.591
x2 = 0.2777, x3 = 0.4267	41.41
x2 = 0.2833, x3 = 0.1486	402
x2 = 0.2958, x3 = 0.669	3.56
x2 = 0.3057, x3 = 0.6808	2.662
x2 = 0.3069, x3 = 0.6239	5.009
x2 = 0.3218, x3 = 0.5748	7.072
x2 = 0.3263, x3 = 0.5386	9.47
x2 = 0.3335, x3 = 0.6189	3.791
x2 = 0.3386, x3 = 0.6405	2.729
x2 = 0.3599, x3 = 0.268	58.73
x2 = 0.3651, x3 = 0.6297	2.282
x2 = 0.366, x3 = 0.5069	8.153
x2 = 0.3714, x3 = 0.5658	4.285
x2 = 0.3806, x3 = 0.3659	24.18
x2 = 0.3954, x3 = 0.5743	2.873
x2 = 0.4166, x3 = 0.5418	3.353
x2 = 0.4363, x3 = 0.4778	4.956
x2 = 0.4432, x3 = 0.2332	33.75
x2 = 0.4437, x3 = 0.5387	2.553
x2 = 0.4443, x3 = 0.5002	3.63
x2 = 0.4617, x3 = 0.4303	5.846
x2 = 0.5079, x3 = 0.2907	11.59
x2 = 0.532, x3 = 0.3966	3.823
x2 = 0.5377, x3 = 0.4533	1.472
x2 = 0.544, x3 = 0.4234	2.522
x2 = 0.5558, x3 = 0.186	16.16
x2 = 0.5841, x3 = 0.3951	2.156
x2 = 0.5878, x3 = 0.3295	3.918
x2 = 0.6004, x3 = 0.2361	7.378
x2 = 0.6077, x3 = 0.3891	1.864
x2 = 0.6374, x3 = 0.3073	2.912
x2 = 0.6743, x3 = 0.2932	2.278
x2 = 0.6985, x3 = 0.0625	11.08
x2 = 0.6991, x3 = 0.1777	4.71
x2 = 0.7005, x3 = 0.2845	1.923
x2 = 0.7599, x3 = 0.1919	2.375
x2 = 0.7937, x3 = 0.0428	5.553
x2 = 0.7997, x3 = 0.1184	2.964
x2 = 0.847, x3 = 0.1454	1.508

CC[n+]1ccn(C)c1.N#C[S-] + CCOS(=O)(=O)[O-].CC[n+]1ccn(C)c1
100 kPa
Conditions	electrical conductivity [S/m]	viscosity [mPa·s]
298.15 K, x1 = 0.67	1.16	43.5
308.15 K, x1 = 0.199	0.688	61.2
313.15 K, x1 = 0.429	1.19	43.1
318.15 K, x1 = 0.9505	3.6	15.57
323.15 K, x1 = 0.899	3.66	13.3
328.15 K, x1 = 0.429	–	22.05
333.15 K, x1 = 0.32	–	22.93
338.15 K, x1 = 0.899	–	9.45
343.15 K, x1 = 0.32	–	17.43
343.15 K, x1 = 0.429	–	14.75
348.15 K, x1 = 0.9505	–	7.21

OCCN(CCO)CCO + CCOS(=O)(=O)[O-].CC[n+]1ccn(C)c1
100 kPa
Conditions	electrical conductivity [S/m]	viscosity [mPa·s]
293.15 K, x1 = 0.153	–	126.2
293.15 K, x1 = 0.617	–	159.3
293.15 K, x1 = 0.967	–	714
298.15 K, x1 = 0.787	0.0457	202.4
298.15 K, x1 = 0.929	0.0087	395
298.15 K, x1 = 0.967	0.00372	478
298.15 K, x2 = 0.003	0.000422	–
298.15 K, x2 = 0.006	0.00076	–
298.15 K, x2 = 0.019	0.00206	–
303.15 K, x1 = 0.617	–	89
303.15 K, x1 = 0.866	–	203.4
303.15 K, x1 = 0.929	–	274.8
303.15 K, x1 = 0.967	–	328
303.15 K, x2 = 0.006	–	389
313.15 K, x1 = 0.153	0.66	50.4
313.15 K, x2 = 0.003	0.00117	–
313.15 K, x2 = 0.006	0.00211	–

CC[NH3+].O=[N+]([O-])[O-] + CC[N+](CC)(CC)CC.O=[N+]([O-])[O-]
Conditions	viscosity [mPa·s]
338.15 K, 101 kPa, x2 = 0	12.5

CC[NH3+].O=[N+]([O-])[O-] + CC[NH2+]CC.O=[N+]([O-])[O-]
Conditions	electrical conductivity [S/m]
323.15 K, 101 kPa, frequency 0.00293 MHz, x2 = 0	4.22

101 kPa, x2 = 0
Conditions	viscosity [mPa·s]
323.15 K	17.6
333.15 K	13.8

CC[NH3+].O=[N+]([O-])[O-] + CC[NH+](CC)CC.O=[N+]([O-])[O-]
101 kPa, frequency 0.00293 MHz, x2 = 0
Conditions	electrical conductivity [S/m]
293.15 K	1.93
298.15 K	2.25
313.15 K	3.37
323.15 K	4.22

101 kPa, x2 = 0
Conditions	viscosity [mPa·s]
293.15 K	43.5
298.15 K	36.5
313.15 K	22.8
323.15 K	17.6

CC[n+]1ccn(C)c1.N#C[S-] + CC[n+]1ccn(C)c1.CS(=O)(=O)[O-] + O
100 kPa, x1 = 1, x2 = 0
Conditions	viscosity [mPa·s]
298.15 K	23.91
323.15 K	11.7

CC[n+]1ccn(C)c1.N#C[S-] + CC[n+]1ccn(C)c1.N#C[N-]C#N
100 kPa, x1 = 1
Conditions	electrical conductivity [S/m]	viscosity [mPa·s]
318.15 K	3.92	12.98
328.15 K	–	10.25
338.15 K	–	8.3
343.15 K	–	7.53

CC[S+](CC)CCOCCOCCOCC[S+](CC)CC.O=S(=O)([N-]S(=O)(=O)C(F)(F)F)C(F)(F)F.O=S(=O)([N-]S(=O)(=O)C(F)(F)F)C(F)(F)F + CC[n+]1ccn(C)c1.N#C[N-]C#N + O=S(=O)([N-]S(=O)(=O)C(F)(F)F)C(F)(F)F.[Li+]
100 kPa, x1 = 0.1475, x2 = 0.7497
Conditions	electrical conductivity [S/m]
298 K	0.673
303 K	0.826
313 K	1.15
323 K	1.46
333 K	1.79
343 K	2.05

CC[S+](CC)CCOCCOCC[S+](CC)CC.O=S(=O)([N-]S(=O)(=O)C(F)(F)F)C(F)(F)F.O=S(=O)([N-]S(=O)(=O)C(F)(F)F)C(F)(F)F + CC[n+]1ccn(C)c1.N#C[N-]C#N + O=S(=O)([N-]S(=O)(=O)C(F)(F)F)C(F)(F)F.[Li+]
100 kPa, x1 = 0.1539, x2 = 0.744
Conditions	electrical conductivity [S/m]
298 K	0.615
303 K	0.691
313 K	0.953
323 K	1.22
333 K	1.57
343 K	1.93

— the CheMixHub ionic liquid set
